From the supplement of paper PMC10307832

Assays:
Experiment in all cases: relative viability (nuclei count vs DMSO), 5 days (fraction); higher = more cells survive
A549 = test system: A549
Procedure, shortened: (§1)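 Values are medians from duplicate plates. Each reflects relative viability, defined as the nuclei count of treated wells over that of vehicle wells. Lung cancer cell lines in 1536-well plates were pin-tool dosed one day after seeding with one drug alone or with a fixed anchor-drug dose plus five library-drug doses (not always all listed) in √10 steps, then fixed, stained and imaged at 4× after 5 days.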

Calu-6 = test system: Calu-6
Procedure, shortened: as §1

EBC-1 = test system: EBC-1
Procedure, shortened: as §1

HCC-78 = test system: HCC-78
Procedure, shortened: as §1

IA-LM = test system: IA-LM
Procedure, shortened: as §1

NCI-H1299 = test system: NCI-H1299
Procedure, shortened: as §1

NCI-H1563 = test system: NCI-H1563
Procedure, shortened: as §1

NCI-H1623 = test system: NCI-H1623
Procedure, shortened: as §1

NCI-H1703 = test system: NCI-H1703
Procedure, shortened: as §1

NCI-H2087 = test system: NCI-H2087
Procedure, shortened: as §1

NCI-H322M = test system: NCI-H322M
Procedure, shortened: as §1

HCC-44 = test system: HCC-44
Procedure, shortened: as §1

NCI-H1648 = test system: NCI-H1648
Procedure, shortened: as §1

SMILES: CCNC(=O)c1noc(-c2cc(C(C)C)c(O)cc2O)c1-c1ccc(CN2CCOCC2)cc1 [Luminespib] + COc1cc2c(Oc3ccc(NC(=O)C4(C(=O)Nc5ccc(F)cc5)CC4)cc3F)ccnc2cc1OCCCN1CCOCC1 [Foretinib] (partner 0.25 µM)
- relative viability (A549; first compound 0.002 µM): 1.04
- relative viability (A549; first compound 0.006325 µM): 0.842
- relative viability (A549; first compound 0.02 µM): 1.09
- relative viability (A549; first compound 0.06325 µM): 0.138
- relative viability (A549; first compound 0.2 µM): 0.0269
- relative viability (Calu-6; first compound 0.002 µM): 0.888
- relative viability (Calu-6; first compound 0.006325 µM): 0.889
- relative viability (Calu-6; first compound 0.02 µM): 1.03
- relative viability (Calu-6; first compound 0.06325 µM): 0.0858
- relative viability (Calu-6; first compound 0.2 µM): 0.086
- relative viability (EBC-1; first compound 0.002 µM): 0.0894
- relative viability (EBC-1; first compound 0.006325 µM): 0.116
- relative viability (EBC-1; first compound 0.02 µM): 0.113
- relative viability (EBC-1; first compound 0.06325 µM): 0.0992
- relative viability (EBC-1; first compound 0.2 µM): 0.104
- relative viability (HCC-78; first compound 0.002 µM): 0.627
- relative viability (HCC-78; first compound 0.006325 µM): 0.593
- relative viability (HCC-78; first compound 0.06325 µM): 0.609
- relative viability (HCC-78; first compound 0.2 µM): 0.598
- relative viability (IA-LM; first compound 0.002 µM): 1.07
- relative viability (IA-LM; first compound 0.006325 µM): 1.13
- relative viability (IA-LM; first compound 0.02 µM): 1.23
- relative viability (IA-LM; first compound 0.06325 µM): 0.0645
- relative viability (IA-LM; first compound 0.2 µM): 0.0409
- relative viability (NCI-H1299; first compound 0.002 µM): 1.08
- relative viability (NCI-H1299; first compound 0.006325 µM): 0.989
- relative viability (NCI-H1299; first compound 0.02 µM): 1.09
- relative viability (NCI-H1299; first compound 0.06325 µM): 1.07
- relative viability (NCI-H1299; first compound 0.2 µM): 0.191
- relative viability (NCI-H1563; first compound 0.002 µM): 1.01
- relative viability (NCI-H1563; first compound 0.006325 µM): 0.831
- relative viability (NCI-H1563; first compound 0.02 µM): 0.875
- relative viability (NCI-H1563; first compound 0.06325 µM): 0.452
- relative viability (NCI-H1563; first compound 0.2 µM): 0.537
- relative viability (NCI-H1623; first compound 0.002 µM): 0.885
- relative viability (NCI-H1623; first compound 0.006325 µM): 0.783
- relative viability (NCI-H1623; first compound 0.02 µM): 0.67
- relative viability (NCI-H1623; first compound 0.06325 µM): 0.673
- relative viability (NCI-H1623; first compound 0.2 µM): 0.375
- relative viability (NCI-H1703; first compound 0.002 µM): 0.332
- relative viability (NCI-H1703; first compound 0.006325 µM): 0.348
- relative viability (NCI-H1703; first compound 0.02 µM): 0.396
- relative viability (NCI-H1703; first compound 0.06325 µM): 0.21
- relative viability (NCI-H1703; first compound 0.2 µM): 0.222
- relative viability (NCI-H2087; first compound 0.002 µM): 1.11
- relative viability (NCI-H2087; first compound 0.006325 µM): 1.1
- relative viability (NCI-H2087; first compound 0.02 µM): 1.37
- relative viability (NCI-H2087; first compound 0.06325 µM): 0.118
- relative viability (NCI-H2087; first compound 0.2 µM): 0.113
- relative viability (NCI-H322M; first compound 0.002 µM): 0.932
- relative viability (NCI-H322M; first compound 0.006325 µM): 0.998
- relative viability (NCI-H322M; first compound 0.02 µM): 0.795
- relative viability (NCI-H322M; first compound 0.06325 µM): 0.323
- relative viability (NCI-H322M; first compound 0.2 µM): 0.3

SMILES: CCNC(=O)c1noc(-c2cc(C(C)C)c(O)cc2O)c1-c1ccc(CN2CCOCC2)cc1 [Luminespib] + COc1cccc2cc(-c3nc([C@H]4CC[C@H](C(=O)O)CC4)n4ncnc(N)c34)[nH]c12 [OSI-027] (partner 0.5 µM)
- relative viability (HCC-44; first compound 0.002 µM): 0.484
- relative viability (HCC-44; first compound 0.006325 µM): 0.554
- relative viability (HCC-44; first compound 0.02 µM): 0.483
- relative viability (HCC-44; first compound 0.06325 µM): 0.135
- relative viability (HCC-44; first compound 0.2 µM): 0.139
- relative viability (HCC-78; first compound 0.002 µM): 0.361
- relative viability (HCC-78; first compound 0.006325 µM): 0.323
- relative viability (HCC-78; first compound 0.06325 µM): 0.412
- relative viability (HCC-78; first compound 0.2 µM): 0.301
- relative viability (NCI-H1563; first compound 0.002 µM): 0.756
- relative viability (NCI-H1563; first compound 0.006325 µM): 0.697
- relative viability (NCI-H1563; first compound 0.02 µM): 0.585
- relative viability (NCI-H1563; first compound 0.06325 µM): 0.473
- relative viability (NCI-H1563; first compound 0.2 µM): 0.468
- relative viability (NCI-H1623; first compound 0.002 µM): 0.449
- relative viability (NCI-H1623; first compound 0.006325 µM): 0.439
- relative viability (NCI-H1623; first compound 0.02 µM): 0.415
- relative viability (NCI-H1623; first compound 0.06325 µM): 0.343
- relative viability (NCI-H1623; first compound 0.2 µM): 0.293
- relative viability (NCI-H1648; first compound 0.006325 µM): 0.283
- relative viability (NCI-H1648; first compound 0.02 µM): 0.289
- relative viability (NCI-H1648; first compound 0.06325 µM): 0.366
- relative viability (NCI-H1648; first compound 0.2 µM): 0.335
- relative viability (NCI-H2087; first compound 0.002 µM): 0.553
- relative viability (NCI-H2087; first compound 0.006325 µM): 0.454
- relative viability (NCI-H2087; first compound 0.02 µM): 0.157
- relative viability (NCI-H2087; first compound 0.06325 µM): 0.125
- relative viability (NCI-H2087; first compound 0.2 µM): 0.0972
- relative viability (NCI-H322M; first compound 0.002 µM): 0.564
- relative viability (NCI-H322M; first compound 0.006325 µM): 0.503
- relative viability (NCI-H322M; first compound 0.02 µM): 0.467
- relative viability (NCI-H322M; first compound 0.06325 µM): 0.278
- relative viability (NCI-H322M; first compound 0.2 µM): 0.312

SMILES: CCNC(=O)c1noc(-c2cc(C(C)C)c(O)cc2O)c1-c1ccc(CN2CCOCC2)cc1 [Luminespib] + Cc1cc(Nc2cc(N3CCN(C)CC3)nc(Sc3ccc(NC(=O)C4CC4)cc3)n2)n[nH]1 [Tozasertib] (partner 0.1 µM)
- relative viability (HCC-44; first compound 0.002 µM): 1.01
- relative viability (HCC-44; first compound 0.006325 µM): 0.766
- relative viability (HCC-44; first compound 0.02 µM): 0.99
- relative viability (HCC-44; first compound 0.06325 µM): 0.169
- relative viability (HCC-44; first compound 0.2 µM): 0.159
- relative viability (HCC-78; first compound 0.002 µM): 0.399
- relative viability (HCC-78; first compound 0.006325 µM): 0.273
- relative viability (HCC-78; first compound 0.06325 µM): 0.467
- relative viability (HCC-78; first compound 0.2 µM): 0.303
- relative viability (NCI-H1623; first compound 0.002 µM): 0.398
- relative viability (NCI-H1623; first compound 0.006325 µM): 0.415
- relative viability (NCI-H1623; first compound 0.02 µM): 0.386
- relative viability (NCI-H1623; first compound 0.06325 µM): 0.306
- relative viability (NCI-H1623; first compound 0.2 µM): 0.297
- relative viability (NCI-H1648; first compound 0.006325 µM): 0.373
- relative viability (NCI-H1648; first compound 0.02 µM): 0.362
- relative viability (NCI-H1648; first compound 0.06325 µM): 0.578
- relative viability (NCI-H1648; first compound 0.2 µM): 0.262
- relative viability (NCI-H2087; first compound 0.002 µM): 0.26
- relative viability (NCI-H2087; first compound 0.006325 µM): 0.29
- relative viability (NCI-H2087; first compound 0.02 µM): 0.243
- relative viability (NCI-H2087; first compound 0.06325 µM): 0.113
- relative viability (NCI-H2087; first compound 0.2 µM): 0.0985
- relative viability (NCI-H322M; first compound 0.002 µM): 0.423
- relative viability (NCI-H322M; first compound 0.006325 µM): 0.458
- relative viability (NCI-H322M; first compound 0.02 µM): 0.422
- relative viability (NCI-H322M; first compound 0.06325 µM): 0.331
- relative viability (NCI-H322M; first compound 0.2 µM): 0.301
